The results in this text go back to patent publication US8748461B2, “Metalloenzyme inhibitor compounds” (Viamet Pharmaceuticals, Inc., priority 2011, dated 2014).

The test system of assay [1] is Septoria tritici (ATCC 26517). In words: Minimum Inhibitory Concentration (MIC) vs. Septoria tritici. Format: cell-based. The following applies: Zymoseptoria tritici, ATCC26517, 168 h; 50% reduction in growth of S. tritici; 22° C., seven days; read-out: Septoria Rating (MIC). In outline: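 Growth inhibition of S. tritici by CLSI-based filamentous-fungus microdilution, 2-fold series 16 to 0.016 μg/mL in RPMI-1640/MOPS with 2% DMSO. Inoculum approximately 5×10^4 cfu/mL; plates incubated 22° C, seven days, dark, unshaken.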

Assay [2] concerns Puccinia recondita tritici = Puccinia triticina. In words: Fungicidal activity vs. leaf rust on wheat plants. Format: in vivo. The following applies: 50 ppm spray on wheat (Yuma), inoculated the following day, evaluated 7-9 days later; read-out: Puccinia Rating (% Disease Control @ 50 ppm). From the text: D. Evaluation of Fungicidal Activity Vs. Leaf Rust (Causal Agent Puccinia recondita Tritici=Puccinia triticina; Bayer code PUCCRT). […] Each pot contained 3-8 seedlings. These plants were sprayed until wet with the formulated test compounds. The compounds were formulated at 50 ppm in 10 vol. % acetone plus 90 vol. % Triton X water (deionized water 99.99 wt %+0.01 wt % Triton X100), giving a “formulated test compound.” Formulated test compounds were applied to plants using a turn table sprayer fitted with two opposing air atomization nozzles which delivered approximately 1500 L/ha of spray volume. On the following day, the leaves were inoculated with an aqueous spore suspension of Puccinia recondita tritici and the plants were kept in high humidity overnight to permit spores to germinate and infect the leaf. The plants were then transferred to a greenhouse until disease developed on untreated control plants. Disease severity was evaluated 7-9 days later, depending on the speed of disease development. In each case of Table 3, the Puccinia rating scale is as follows: […]

Values after ≈ are worked out from the molar mass of the structure shown.

Take `CC(Oc1ccc(C(F)(F)C(O)(Cn2cnnn2)c2ccc(F)cc2F)nc1)C(F)(F)F` (stereo not drawn) [Compound 47, 2-(2,4-Difluorophenyl)-1,1-difluoro-3-(1H-tetrazol-1-yl)-1-(5-((1,1,1-trifluoropropan-2-yl)oxy)pyridin-2-yl)propan-2-ol]: in assay [1], the MIC (in general, the lowest concentration found to suppress growth) was at most 0.5 µg/mL. Moreover, the pest or weed control at 50 ppm in assay [2] is 80 to 100%.
As to `OC(Cn1cnnn1)(c1ccc(F)cc1F)C(F)(F)c1ccc(OCc2ccc(Cl)cn2)cn1` (stereo not drawn) [Compound 113, 1-(5-((5-chloropyridin-2-yl)methoxy)pyridin-2-yl)-2-(2,4-difluorophenyl)-1,1-difluoro-3-(1H-tetrazol-1-yl)propan-2-ol], in assay [1], the MIC was at most 0.5 µg/mL. Moreover, the pest or weed control at 50 ppm in assay [2] was 80 to 100%.
On to `OC(Cn1cnnn1)(c1ccc(F)cc1F)C(F)(F)c1ccc(OCc2ccnc(Cl)c2)cn1` (stereo not drawn) [Compound 117, 1-(5-((2-chloropyridin-4-yl)methoxy)pyridin-2-yl)-2-(2,4-difluorophenyl)-1,1-difluoro-3-(1H-tetrazol-1-yl)propan-2-ol], for which the MIC in assay [1] was at most 0.5 µg/mL. Moreover, the pest or weed control at 50 ppm in assay [2] is 80 to 100%.
In the case of `OC(Cn1cnnn1)(c1ccc(F)cc1F)C(F)(F)c1ccc(Oc2ccc(Cl)cc2)cn1` (stereo not drawn) [Compound 7, 1-(5-(4-Chlorophenoxy)pyridin-2-yl)-2-(2,4-difluorophenyl)-1,1-difluoro-3-(1H-tetrazol-1-yl)propan-2-ol], in assay [1], the MIC was at most 0.5 µg/mL. Further, in assay [2], the pest or weed control at 50 ppm lay within 80 to 100%.
For `OC(Cn1cnnn1)(c1ccc(F)cc1F)C(F)(F)c1ccc(OCc2ccc(Cl)cc2F)cn1` (stereo not drawn) [Compound 1, 1-(5-(4-Chloro-2-fluorobenzyloxy)pyridin-2-yl)-2-(2,4-difluorophenyl)-1,1-difluoro-3-(1H-tetrazol-1-yl)propan-2-ol] the same measures were at most 0.5 µg/mL and 80 to 100%.
For the compound `OC(Cn1cnnn1)(c1ccc(F)cc1F)C(F)(F)c1ccc(Oc2ccccc2)cn1` (stereo not drawn) [Compound 11, 2-(2,4-Difluorophenyl)-1,1-difluoro-1-(5-phenoxypyridin-2-yl)-3-(1H-tetrazol-1-yl)propan-2-ol], the MIC in assay [1] is at most 0.5 µg/mL. Also, the pest or weed control at 50 ppm in assay [2] fell in the range of 80 to 100%.
Consider `COc1cccc(COc2ccc(C(F)(F)C(O)(Cn3cnnn3)c3ccc(F)cc3F)nc2)c1` (stereo not drawn) [Compound 34, 2-(2,4-Difluorophenyl)-1,1-difluoro-1-(5-((3-methoxybenzyl)oxy)pyridin-2-yl)-3-(1H-tetrazol-1-yl)propan-2-ol], for which the MIC in assay [1] was at most 0.5 µg/mL. In addition, the pest or weed control at 50 ppm in assay [2] is 80 to 100%.
Regarding `N#Cc1ccc(COc2ccc(C(F)(F)C(O)(Cn3cnnn3)c3ccc(F)cc3F)nc2)cc1` (stereo not drawn) [Compound 9, 4-(((6-(2-(2,4-Difluorophenyl)-1,1-difluoro-2-hydroxy-3-(1H-tetrazol-1-yl)propyl)pyridin-3-yl)oxy)methyl)benzonitrile], in assay [1], the MIC was at most 0.5 µg/mL. For the same compound, the pest or weed control at 50 ppm in assay [2] was 80 to 100%.
For `OC(Cn1cnnn1)(c1ccc(Cl)cc1F)C(F)(F)c1ccc(OCC2CC2)cn1` (stereo not drawn) [Compound 54, 2-(4-Chloro-2-fluorophenyl)-1-(5-(cyclopropylmethoxy)pyridin-2-yl)-1,1-difluoro-3-(1H-tetrazol-1-yl)propan-2-ol], the MIC in assay [1] is at most 0.5 µg/mL. Besides, the pest or weed control at 50 ppm in assay [2] was 80 to 100%.
`OC(Cn1cnnn1)(c1ccc(F)cc1F)C(F)(F)c1ccc(Oc2ncccn2)cn1` (stereo not drawn) [Compound 97, 2-(2,4-difluorophenyl)-1,1-difluoro-1-(5-(pyrimidin-2-yloxy)pyridin-2-yl)-3-(1H-tetrazol-1-yl)propan-2-ol]: the MIC in assay [1] lay within 0.5 to 1.5 µg/mL (≈ 1.12 to 3.35 µM). Also, the pest or weed control at 50 ppm in assay [2] lay within 80 to 100%.
Take `N#Cc1ccc(COc2ccc(C(F)(F)C(O)(Cn3ncnn3)c3ccc(F)cc3F)nc2)cc1` (stereo not drawn) [Compound 83, 4-(((6-(2-(2,4-Difluorophenyl)-1,1-difluoro-2-hydroxy-3-(2H-tetrazol-2-yl)propyl)pyridin-3-yl)oxy)methyl)benzonitrile]: the MIC in assay [1] fell in the range of 1.5 to 4 µg/mL (≈ 3.1 to 8.26 µM). In assay [2], the pest or weed control at 50 ppm lay in the range of 40 to 59%.
Turning to `OC(Cn1cnnn1)(c1ccc(F)cc1F)C(F)(F)c1ccc(OCc2ccc(C(F)(F)F)nc2)cn1` (stereo not drawn) [Compound 115, 2-(2,4-difluorophenyl)-1,1-difluoro-3-(1H-tetrazol-1-yl)-1-(5-((6-(trifluoromethyl)pyridin-3-yl)methoxy)pyridin-2-yl)propan-2-ol], the minimal inhibitory concentration (MIC) in assay [1] was at most 0.5 µg/mL. Besides, in assay [2], the pest or weed control at 50 ppm was in the range of 80 to 100%.
On to `OC(Cn1cnnn1)(c1ccc(F)cc1F)C(F)(F)c1ccc(Oc2ccc(C(F)(F)F)cn2)cn1` (stereo not drawn) [Compound 94, 2-(2,4-difluorophenyl)-1,1-difluoro-3-(1H-tetrazol-1-yl)-1-(5-((5-(trifluoromethyl)pyridin-2-yl)oxy)pyridin-2-yl)propan-2-ol], for which, in assay [1], the MIC was at most 0.5 µg/mL. The pest or weed control at 50 ppm in assay [2] fell in the range of 80 to 100%.
For `OC(Cn1cnnn1)(c1ccc(Cl)cc1F)C(F)(F)c1ccc(OCC(F)(F)F)cn1` (stereo not drawn) [Compound 71, 2-(4-Chloro-2-fluorophenyl)-1,1-difluoro-3-(1H-tetrazol-1-yl)-1-(5-(2,2,2-trifluoroethoxy)pyridin-2-yl)propan-2-ol] the same measures were at most 0.5 µg/mL and 80 to 100%.
For `N#Cc1cc(Oc2ccc(C(F)(F)C(O)(Cn3cnnn3)c3ccc(F)cc3F)nc2)ccn1` (stereo not drawn) [Compound 96, 4-((6-(2-(2,4-difluorophenyl)-1,1-difluoro-2-hydroxy-3-(1H-tetrazol-1-yl)propyl)pyridin-3-yl)oxy)picolinonitrile], in that order: 1.5 to 4 µg/mL (≈ 3.18 to 8.49 µM) and 60 to 79%.
Turning to `N#Cc1cc(COc2ccc(C(F)(F)C(O)(Cn3cnnn3)c3ccc(F)cc3F)nc2)ccc1F` (stereo not drawn) [Compound 65, 5-(((6-(2-(2,4-Difluorophenyl)-1,1-difluoro-2-hydroxy-3-(1H-tetrazol-1-yl)propyl)pyridin-3-yl)oxy)methyl)-2-fluorobenzonitrile], the MIC in assay [1] is at most 0.5 µg/mL. In addition, the pest or weed control at 50 ppm in assay [2] was in the range of 80 to 100%.
In the case of `OC(Cn1cnnn1)(c1ccc(F)cc1F)C(F)(F)c1ccc(Oc2ccc(Cl)cn2)cn1` (stereo not drawn) [Compound 95, 1-(5-((5-chloropyridin-2-yl)oxy)pyridin-2-yl)-2-(2,4-difluorophenyl)-1,1-difluoro-3-(1H-tetrazol-1-yl)propan-2-ol], in assay [1], the MIC is at most 0.5 µg/mL. In addition, the pest or weed control at 50 ppm in assay [2] lay within 80 to 100%.
With `N#Cc1ccc(COc2ccc(C(F)(F)C(O)(Cn3cnnn3)c3ccc(Cl)cc3F)nc2)cc1` (stereo not drawn) [Compound 55, 4-(((6-(2-(4-Chloro-2-fluorophenyl)-1,1-difluoro-2-hydroxy-3-(1H-tetrazol-1-yl)propyl)pyridin-3-yl)oxy)methyl)benzonitrile], the MIC in assay [1] is at most 0.5 µg/mL. Further, the pest or weed control at 50 ppm in assay [2] was in the range of 80 to 100%.
Take `N#Cc1ccc(COc2ccc(C(F)(F)C(O)(Cn3cnnn3)c3ccc(F)cc3F)nc2)c(F)c1` (stereo not drawn) [Compound 57, 4-(((6-(2-(2,4-Difluorophenyl)-1,1-difluoro-2-hydroxy-3-(1H-tetrazol-1-yl)propyl)pyridin-3-yl)oxy)methyl)-3-fluorobenzonitrile]: the minimal inhibitory concentration (MIC) in assay [1] was at most 0.5 µg/mL. Also, the pest or weed control at 50 ppm in assay [2] fell in the range of 80 to 100%.
As for `N#Cc1cccc(COc2ccc(C(F)(F)C(O)(Cn3cnnn3)c3ccc(F)cc3F)nc2)c1F` (stereo not drawn) [Compound 67, 3-(((6-(2-(2,4-Difluorophenyl)-1,1-difluoro-2-hydroxy-3-(1H-tetrazol-1-yl)propyl)pyridin-3-yl)oxy)methyl)-2-fluorobenzonitrile], the MIC in assay [1] was at most 0.5 µg/mL. Besides, the pest or weed control at 50 ppm in assay [2] is 80 to 100%.
For `OC(Cn1cnnn1)(c1ccc(F)cc1F)C(F)(F)c1ccc(Oc2ncc(C(F)(F)F)cc2F)cn1` (stereo not drawn) [Compound 104, 2-(2,4-difluorophenyl)-1,1-difluoro-1-(5-((3-fluoro-5-(trifluoromethyl)pyridin-2-yl)oxy)pyridin-2-yl)-3-(1H-tetrazol-1-yl)propan-2-ol], in that order: at most 0.5 µg/mL and 80 to 100%.
For `OC(Cn1cnnn1)(c1ccc(F)cc1F)C(F)(F)c1ccc(OCc2ccc(F)c(F)c2)cn1` (stereo not drawn) [Compound 28, 1-(5-((3,4-Difluorobenzyl)oxy)pyridin-2-yl)-2-(2,4-difluorophenyl)-1,1-difluoro-3-(1H-tetrazol-1-yl)propan-2-ol], in that order: at most 0.5 µg/mL and 80 to 100%.
On to `OC(Cn1cnnn1)(c1ccc(F)cc1F)C(F)(F)c1ccc(OCc2cc(F)cc(F)c2)cn1` (stereo not drawn) [Compound 35, 1-(5-((3,5-Difluorobenzyl)oxy)pyridin-2-yl)-2-(2,4-difluorophenyl)-1,1-difluoro-3-(1H-tetrazol-1-yl)propan-2-ol], for which the MIC in assay [1] was at most 0.5 µg/mL. In assay [2], the pest or weed control at 50 ppm was 80 to 100%.
With `OC(Cn1cnnn1)(c1ccc(F)cc1F)C(F)(F)c1ccc(OCC(F)c2ccccc2)cn1` (stereo not drawn) [Compound 123, 2-(2,4-difluorophenyl)-1,1-difluoro-1-(5-(2-fluoro-2-phenylethoxy)pyridin-2-yl)-3-(1H-tetrazol-1-yl)propan-2-ol], the MIC in assay [1] is at most 0.5 µg/mL. Moreover, in assay [2], the pest or weed control at 50 ppm was in the range of 80 to 100%.
